Values of other authors as cited in patent US20090118293A1 (priority 2004, published 2009).
Structures can show the parent of a compound that is named as a salt.

| Structure (SMILES) | Solubility in alcohol (alcohol) | Solubility in ether (ether) | Solubility in water | Solubility in organic solvents (organic solvents such as ethanol, ether and chloroform) |
| --- | --- | --- | --- | --- |
| NNc1nncc2ccccc12 [hydralazine hydrochloride] | slightly soluble | very slightly soluble | soluble | – |
| O=[N+]([O-])O[C@H]1CO[C@H]2[C@@H]1OC[C@H]2O[N+](=O)[O-] [isosorbide dinitrate, 1,4,3,6-dianhydro-D-glucitol-2,5-dinitrate] | – | – | sparingly soluble | freely soluble |
